Where only a bound is given, the exact number is not on record here.

Test [1] deals with T1, Human Cathepsin L (Homo sapiens, UniProt P07711).
T1 construct: purchased CN Biosciences
Put plainly: Cathepsin peptidase activity assay, human cathepsin L (Ki). As to conditions: pH 6.5, 25±1° C. The class given is biochemical. As for the experimental part:
(§1) Assay protocols were based on literature precedent (Table 1; Barrett, A. J., Rawlings, N. D. and Woessner, J. F., 1998, Handbook of Proteolytic Enzymes, Academic Press, London and references therein) and modified as required to suit local assay protocols. Enzyme was added as required to initiate the reaction and the activity, as judged by the change in fluorescence upon conversion of substrate to product, was monitored over time. All assays were carried out at 25±1° C.
(§2) Bovine cathepsin S, human cathepsin L, human cathepsin H and human cathepsin B were obtained from CN Biosciences. Recombinant human cathepsin S, human cathepsin K and human cathepsin X were obtained from Dr. Boris Turk (Josef Stefan Institute, Ljubljana, Slovenia). Unless otherwise stated, all peptidase activity assays were carried out in 10 mM bis-tris-propane (BTP), pH 6.5 containing 1 mM EDTA, 5 mM 2-mercaptoethanol and 1 mM CaCl2. Human cathepsin H activity assays were carried out in 10 mM BTP pH 6.5, 142 mM […], 1 mM CaCl2, 1 mM EDTA, 1 mM DTT, 0.035 mM Zwittergent 3–16. Human cathepsin K assays were carried out in 100 mM sodium acetate; pH 5.5 containing 20 mM L-cysteine and 1 mM EDTA (Bossard, M. J., et. al., J. Biol. Chem., […], 12517–12524, 1996). […] The final enzyme concentrations used in the assays were 0.5 nM bovine cathepsin S, 1 nM cathepsin L, 0.1 nM cathepsin B, 0.25 nM Cathepsin K; 1 nM cathepsin X and 10 nM cathepsin H. For the inhibition assays, the substrates used for cathepsin S, cathepsin L, cathepsin B, cathepsin K and cathepsin H were boc-Val-Leu-Lys-AMC (KM^app≈30 μM, Ac-Phe-Arg-AMC (KMaPP 20 EM), Z-Phe-Arg-AMC (KM^app≈40 μM), Z-Leu-Arg-AMC (KM^app≈2 μM); Bz-Phe-Val-Arg-AMC (KM^app≈150 μM) respectively. In each case the substrate concentration used in each assay was equivalent to the KM^app. The rate of conversion of substrate to product was derived from the slope of the increase in fluorescence monitored continuously over time.
(§3) The apparent inhibition constant (Ki) for each compound was determined on the basis that inhibition was reversible and occurred by a pure-competitive mechanism. The Ki values were calculated, from the dependence of enzyme activity as a function of inhibitor concentration, by direct regression analysis (Prism v 3.02) using Equation 2 (Cornish-Bowden, A., 1995.).
(§4) In situations where the apparent dissociation constant (Ki^app) approached the enzyme concentrations, the Ki^app values were calculated using a quadratic solution in the form described by Equation 3 (Morrison, J. F. Trends Biochem. Sci., 7, 102–105, 1982; Morrison, J. F. Biochim. Biophys. Acta, 185, 269–286, 1969; Stone, S. R. and Hofsteenge, J. Biochemistry, 25, 4622–4628, 1986).

In test [2] the target is Cruzipain (Trypanosoma cruzi, UniProt P25779). Put plainly: Trypanosoma cruzi cruzipain peptidase activity assay (Ki). The class given is biochemical. The following applies: wild-type cruzipain from Trypanosoma cruzi Dm28 epimastigotes, pH 6.75, 25±1° C. As for the experimental part:
as §1
Wild-type cruzipain, derived from Trypanosoma cruzi Dm28 epimastigotes, was obtained from Dr. Julio Scharfstein (Instituto de Biofisica Carlos Chagas Filho, Universidade Federal do Rio de Janeiro, R10 de Janeiro, Brazil). Activity assays were carried out in 100 mM sodium phosphate, pH 6.75 containing 1 mM EDTA and 10 mM L-cysteine using 2.5 nM enzyme. Ac-Phe-Arg-AMC (KM^app≈12 μM) and D-Val-Leu-Lys-AMC (KM^app≈4 μM) were used as the substrates. Routinely, Ac-FR-AMC was used at a concentration equivalent to KM^app and D-Val-Leu-Lys-AMC was used at a concentration of 25 μM. The rate of conversion of substrate to product was derived from the slope of the increase in fluorescence monitored continuously over time.
as §3, §4

The target in test [3] is T2, Human Cathepsin K (Homo sapiens, UniProt P43235).
T2 construct: Dr. Boris Turk (Josef Stefan Institute, Ljubljana, Slovenia)
T2 sequence (P43235 115-329): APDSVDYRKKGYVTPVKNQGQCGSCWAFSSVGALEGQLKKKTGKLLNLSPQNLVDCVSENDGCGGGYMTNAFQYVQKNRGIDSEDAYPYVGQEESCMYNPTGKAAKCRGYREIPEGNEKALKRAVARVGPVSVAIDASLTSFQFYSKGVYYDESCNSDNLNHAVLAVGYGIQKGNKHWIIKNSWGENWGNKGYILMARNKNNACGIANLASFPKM
As to the kind of experiment: Cathepsin peptidase activity assay, human cathepsin K (Ki). The class given is biochemical. The following applies: pH 5.5, 25±1° C. As for the experimental part:
as §1, §2, §3, §4

Test [4] deals with T3, Bovine Cathepsin S (Bos taurus, UniProt P25326).
T3 construct: purchased CN Biosciences
T3 sequence (P25326 115-331): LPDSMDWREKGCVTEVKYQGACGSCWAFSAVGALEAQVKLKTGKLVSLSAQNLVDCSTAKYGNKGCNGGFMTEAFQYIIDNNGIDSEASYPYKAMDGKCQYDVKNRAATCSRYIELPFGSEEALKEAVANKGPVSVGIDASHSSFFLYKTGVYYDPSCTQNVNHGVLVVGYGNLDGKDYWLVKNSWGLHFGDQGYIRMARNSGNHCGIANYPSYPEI
As to the kind of experiment: Cathepsin peptidase activity assay, bovine cathepsin S (Ki). The format is biochemical. As to conditions: pH 6.5, 25±1° C. As for the experimental part:
as §1, §2, §3, §4

Test [5] relates to Trypanosoma cruzi-infected mammalian cell cultures. The following applies: added to Trypanosoma cruzi-infected mammalian cell cultures; cited from earlier work.
Test [6] concerns Trypanosoma cruzi infection. As to conditions: during the acute phase of infection; cited from earlier work.

Chain of Cruzipain (P25779 whole entry): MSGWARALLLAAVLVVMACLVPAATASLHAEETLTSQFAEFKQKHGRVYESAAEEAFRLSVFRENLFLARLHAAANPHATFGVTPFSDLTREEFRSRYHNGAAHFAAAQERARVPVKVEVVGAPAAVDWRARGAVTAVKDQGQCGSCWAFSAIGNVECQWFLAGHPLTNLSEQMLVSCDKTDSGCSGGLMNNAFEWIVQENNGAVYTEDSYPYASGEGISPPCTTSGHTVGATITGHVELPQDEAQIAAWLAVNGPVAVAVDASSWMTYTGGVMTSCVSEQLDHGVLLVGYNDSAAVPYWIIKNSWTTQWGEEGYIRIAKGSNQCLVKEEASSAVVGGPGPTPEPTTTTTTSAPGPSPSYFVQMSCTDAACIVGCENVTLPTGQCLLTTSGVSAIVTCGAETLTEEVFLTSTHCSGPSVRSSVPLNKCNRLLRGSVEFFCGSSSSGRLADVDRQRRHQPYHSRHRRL
T1 sequence (P07711 114-333): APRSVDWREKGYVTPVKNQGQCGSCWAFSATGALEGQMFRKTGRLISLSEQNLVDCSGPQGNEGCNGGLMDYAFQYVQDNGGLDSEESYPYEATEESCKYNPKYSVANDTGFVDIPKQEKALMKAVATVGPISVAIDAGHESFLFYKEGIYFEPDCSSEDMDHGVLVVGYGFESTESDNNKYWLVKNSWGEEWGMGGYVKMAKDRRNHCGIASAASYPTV

Take `C[C@H]1OCC(=O)[C@H]1NC(=O)[C@H](Cc1ccccc1)OCc1cccc2ccccc12` (racemic) [Example 49]: the Ki (as a rule, the equilibrium dissociation constant of an inhibitor or competing ligand from its target) is below 10 µM in test [1], above 100 µM in test [2], above 100 µM in test [3] and above 100 µM in test [4].
On to `CC(NC(=O)C(Cc1ccccc1)NC(=O)OCc1ccccc1)C(=O)CF` (stereo not drawn) [Z-Phe-Ala-FMK], for which, in test [5], the “effect on replication and differentiation of the parasite” value is “blocked replication and differentiation of the parasite”.
With `CC(C)C[C@H](CC(=O)n1ccc(-c2ccccc2)c1)C(=O)N[C@@H]1C(=O)CO[C@@H]1C` [Example 22, (2R, 3S) 4-Methyl-2-[2-oxo-2-(3-phenyl-pyrrol-1-yl)-ethyl]-pentanoic acid (2-methyl-4-oxo-tetrahydrofuran-3-yl)-amide], the Ki was above 100 µM in test [1], below 5 µM in test [2], above 5 µM in test [3] and above 50 µM in test [4].
In the same order, the values of `CC(C)CC(C(=O)N[C@H]1C(=O)CO[C@@H]1C)c1cccc(-c2ccccc2)c1` (mixture of isomers) [Example 46, (2R, 3R) 2-Biphenyl-3-yl-4-methyl-pentanoic acid (2-methyl-4-oxo-tetrahydrofuran-3-yl)-amide] are above 5 µM, above 10 µM, below 1 µM and above 20 µM.
In the case of `C[C@@H]1OCC(=O)[C@H]1NC(=O)[C@H](CC1CCCCC1)SCc1ccco1` [Example 4, (2S, 3S) 3-Cyclohexyl-2-(furan-2-ylmethylsulfanyl)-N-(2-methyl-4-oxo-tetrahydrofuran-3-yl)-propionamide], the Ki in test [1] was above 100 µM; in test [2], above 100 µM; in test [3] it was above 100 µM; in test [4], below 10 µM.
For `O=C(Cn1ccnc1[N+](=O)[O-])NCc1ccccc1` [benznidazole], the cure in test [6] is listed as around 60%.

Values taken from patent US7132449B2, “Inhibitors of cruzipain and other cysteine proteases” (Amura Therapeutics Limited, priority 2001, dated 2006).
